± gives the standard deviation of the averaged measurements.
Assay: TIMS collisional cross section (CCS, N2) of the lipid ion; higher = larger ion cross section
Details: ionization mode: positive, one isomer drawn

| TIMS collisional cross section (sample type: HeLa) [Å²] | TIMS collisional cross section (sample type: Liver) [Å²] | TIMS collisional cross section (sample type: plasma) [Å²] | Compound |
| --- | --- | --- | --- |
| 278.8 | – | – | CC/C=C\C/C=C\C/C=C\C/C=C\CCCCC(=O)O[C@H](COC(=O)CCCCCCCCCCCCC)COP(=O)([O-])OCC[N+](C)(C)C [PC 14:0@_18:4] (ion (formula + adduct): [C40H72NO8P+H] 1+) |
| 292.7 | – | – | CCCCC/C=C\C/C=C\C/C=C\C/C=C\CCCC(=O)O[C@H](COC(=O)CCCCCCC/C=C\CCCCCCCC)COP(=O)([O-])OCC[N+](C)(C)C [PC 18:1@_20:4] (ion (formula + adduct): [C46H82NO8P+H] 1+) |
| 286.1 | 285.5 | 285.7 ± 0.42 | CCCCCCCCCCCCCCCC(=O)OC[C@H](COP(=O)([O-])OCC[N+](C)(C)C)OC(=O)CCCCCCCCCCCCCCC [PC 16:0_16:0] (ion (formula + adduct): [C40H80NO8P+H] 1+) |
| – | – | 219.5 | CC(C)CCC[C@@H](C)[C@H]1CC[C@H]2C3=CC[C@H]4[C@](C)(C=O)[C@@H](O)CC[C@]4(C)[C@H]3CC[C@]12C (ion (formula + adduct): [C29H48O2+H] 1+) |
| – | 285 | 284.2 | CC/C=C\C/C=C\C/C=C\C/C=C\C/C=C\C/C=C\CCC(=O)O[C@H](CO/C=C\CCCCCCCCCCCCCCCC)COP(=O)(O)OCCN [PE P- 18:0@_22:6] (ion (formula + adduct): [C45H78NO7P+H] 1+) |
| 279.7 | – | – | CCCCC/C=C\C/C=C\C/C=C\CCCCC(=O)O[C@H](COC(=O)CCCCCCCCCCCCCC)COP(=O)([O-])OCC[N+](C)(C)C [PC 15:0@_18:3] (ion (formula + adduct): [C41H76NO8P+H] 1+) |
| – | 290.1 | – | CCCCC/C=C\C/C=C\C/C=C\C/C=C\CCCC(=O)O[C@H](COC(=O)CCCCCCC/C=C\C/C=C\CCCCC)COP(=O)([O-])OCC[N+](C)(C)C [PC 18:2_20:4] (ion (formula + adduct): [C46H80NO8P+H] 1+) |
| 268.3 | – | – | CCCCCCCC/C=C\CCCCCCCC(=O)O[C@@H](CO)COC(=O)CCCCCCC/C=C\CCCCCCCCC [DG 19:1_18:1_0:0] (ion (formula + adduct): [C40H74O5+NH4] 1+) |
| – | – | 302.1 | CCCCCCCCCCCCCCCCC(=O)OC[C@@H](COC(=O)CCCCCCCCCCC)OC(=O)CCCCCCCCCCCCCC [TG 12:0_15:0_17:0] (ion (formula + adduct): [C47H90O6+NH4] 1+) |
| 279.1 | 280 ± 0.42 | – | CCCCC/C=C\C/C=C\C/C=C\C/C=C\CCCC(=O)OC[C@H](COP(=O)(O)OCCN)OC(=O)CCCCCCC/C=C\CCCCCCCC [PE 20:4_18:1] (ion (formula + adduct): [C43H76NO8P+H] 1+) |
| – | 289.9 | 289.3 | CCCCC/C=C\C/C=C\C/C=C\CCCCC(=O)O[C@H](COC(=O)CCCCCCC/C=C\C/C=C\CCCCC)COP(=O)([O-])OCC[N+](C)(C)C [PC 18:2_18:3@] (ion (formula + adduct): [C44H78NO8P+H] 1+) |
| – | – | 285 | CCCCC/C=C\C/C=C\CCCCCCCC(=O)O[C@H](CO/C=C\CCCCCCCCCCCCCCCCCC)COP(=O)(O)OCCN [PE P- 20:0@_18:2] (ion (formula + adduct): [C43H82NO7P+H] 1+) |
| 292.4 | – | – | CCCCCCCC/C=C\CCCCCCCC(=O)OC[C@H](COP(=O)(O)OCCN)OC(=O)CCCCCCCCC/C=C\CCCCCCCCCC [PE 18:1_22:1] (ion (formula + adduct): [C45H86NO8P+H] 1+) |
| – | 288.7 | – | CCCCC/C=C\C/C=C\C/C=C\C/C=C\CCCC(=O)O[C@H](CO/C=C\CCCCCCCCCCCCCCCCCC)COP(=O)(O)OCCN [PE P- 20:0@_20:4] (ion (formula + adduct): [C45H82NO7P+H] 1+) |
| – | 323.3 | – | CCCCC/C=C\C/C=C\C/C=C\C/C=C\CCCC(=O)OC[C@@H](COC(=O)CCCCCCC/C=C\C/C=C\CCCCC)OC(=O)CCCCCCC/C=C\C/C=C\CCCCC [TG 18:2_18:2_20:4] (ion (formula + adduct): [C59H98O6+NH4] 1+) |
| – | 338.2 | – | CCCCC/C=C\C/C=C\CCCCCCCC(=O)OC[C@H](COC(=O)CCCCCCCCC/C=C\CCCCCCCCCC)OC(=O)CCCCCCC/C=C\CCCCCCCCC [TG 18:2_19:1_22:1] (ion (formula + adduct): [C62H112O6+NH4] 1+) |
| 264.8 | 264.9 | – | CCCCC/C=C\C/C=C\C/C=C\CCCCCCC(=O)O[C@@H](CO)COC(=O)CCCCCCCCCCCCCCC [DG 16:0_20:3_0:0] (ion (formula + adduct): [C39H70O5+NH4] 1+) |

| TIMS collisional cross section (sample type: HeLa) [Å²] | TIMS collisional cross section (sample type: Liver) [Å²] | TIMS collisional cross section (sample type: plasma) [Å²] | Compound |
| --- | --- | --- | --- |
| – | 287.2 | – | CCCCC/C=C\C/C=C\C/C=C\C/C=C\CCCC(=O)O[C@H](COC(=O)CCCCCCCCC/C=C\CCCCCCCC)COP(=O)(O)OCCN [PE 20:1_20:4] (ion (formula + adduct): [C45H80NO8P+H] 1+) |
| – | 284 | – | CCCCC/C=C\C/C=C\C/C=C\C/C=C\CCCC(=O)O[C@H](COCCCCCCCCCCCCCCCCCC)COP(=O)(O)OCCN [PE O- 18:0@_20:4] (ion (formula + adduct): [C43H80NO7P+H] 1+) |
| 312.9 | – | 312.8 ± 0.14 | CCCCCC/C=C\CCCCCCCC(=O)O[C@@H](COC(=O)CCCCCCC/C=C\CCCCCCCC)COC(=O)CCCCCCCCCCCCCC [TG 15:0_16:1_18:1] (ion (formula + adduct): [C52H96O6+NH4] 1+) |
| – | 267.7 | – | CC/C=C\C/C=C\C/C=C\C/C=C\C/C=C\C/C=C\CCC(=O)O[C@@H](CO)COC(=O)CCCCCCCCCCCCCCC [DG 16:0_22:6_0:0] (ion (formula + adduct): [C41H68O5+NH4] 1+) |
| – | 259.8 | – | CCCCC/C=C\C/C=C\CCCCCCCC(=O)O[C@@H](CO)COC(=O)CCCCCCCCCCCCCCC [DG 16:0_18:2_0:0] (ion (formula + adduct): [C37H68O5+NH4] 1+) |
| 349.2 | – | – | CCCCCCCC/C=C\CCCCCCCCCCCC(=O)OC[C@@H](COC(=O)CCCCCCC/C=C\CCCCCCCC)OC(=O)CCCCCCCCCCC/C=C\CCCCCCCC [TG 18:1_22:1_22:1] (ion (formula + adduct): [C65H120O6+NH4] 1+) |
| 282.6 | 282.8 | 282.6 | CCCCC/C=C\C/C=C\CCCCCCCC(=O)O[C@H](COC(=O)CCCCCCC/C=C\CCCCCC)COP(=O)([O-])OCC[N+](C)(C)C [PC 16:1_18:2] (ion (formula + adduct): [C42H78NO8P+H] 1+) |
| – | 330.6 | – | CCCCCCCC/C=C\CCCCCCCC(=O)O[C@H](COC(=O)CCCCCCCCCCCCCCC)COC(=O)CCCCCCCCCCCCCCCCCCC [TG 16:0_18:1_20:0] (ion (formula + adduct): [C57H108O6+NH4] 1+) |
| 336.5 | – | – | CC/C=C\C/C=C\C/C=C\C/C=C\C/C=C\C/C=C\CCC(=O)OC[C@@H](COC(=O)CCCCCCC/C=C\CCCCCCCC)OC(=O)CCCCCCCCC/C=C\CCCCCCCC [TG 18:1_20:1_22:6] (ion (formula + adduct): [C63H106O6+NH4] 1+) |
| 311.9 | 310.5 | 311.2 | CCCCC/C=C\C/C=C\CCCCCCCC(=O)OC[C@@H](COC(=O)CCCCCCC/C=C\CCCCCC)OC(=O)CCCCCCC/C=C\CCCCCC [TG 16:1_16:1_18:2] (ion (formula + adduct): [C53H94O6+NH4] 1+) |
| – | 286.3 | – | CCCCC/C=C\C/C=C\CCCCCCCC(=O)O[C@H](COC(=O)CCCCCCCCCCCCCCCCCCC)COP(=O)(O)OCCN [PE 20:0@_18:2] (ion (formula + adduct): [C43H82NO8P+H] 1+) |
| 292.8 | – | – | CCCCCC/C=C\CCCCCCCC(=O)OC[C@@H](COC(=O)CCCCCCCCCCC)OC(=O)CCCCCCCCCCCCC [TG 12:0_14:0_16:1] (ion (formula + adduct): [C45H84O6+NH4] 1+) |
| 319.7 | 319.7 | – | CCCCC/C=C\C/C=C\CCCCCCCC(=O)OC[C@@H](COC(=O)CCCCCCC/C=C\CCCCCC)OC(=O)CCCCCCCCCCCCCCCCC [TG 16:1_18:0_18:2] (ion (formula + adduct): [C55H100O6+NH4] 1+) |
| – | 288.1 | – | CCCCC/C=C\C/C=C\CCCCCCCC(=O)O[C@H](COC(=O)CCCCCCCCCCCCCCCC)COP(=O)([O-])OCC[N+](C)(C)C [PC 17:0@_18:2] (ion (formula + adduct): [C43H82NO8P+H] 1+) |
| – | 314.5 | – | CC/C=C\C/C=C\C/C=C\C/C=C\C/C=C\CCCC(=O)OC[C@@H](COC(=O)CCCCCCCCCCCCCCC)OC(=O)CCCCCCCCCCCCCCC [TG 16:0_16:0_20:5] (ion (formula + adduct): [C55H96O6+Na] 1+) |
| – | 324.7 | – | CCCCC/C=C\C/C=C\CCCCCCCCCC(=O)OC[C@@H](COC(=O)CCCCCCC/C=C\CCCCCC)OC(=O)CCCCCCC/C=C\CCCCCCCC [TG 16:1_18:1_20:2] (ion (formula + adduct): [C57H102O6+NH4] 1+) |
| 281.9 | – | – | CCCCCC/C=C\CCCCCCCC(=O)O[C@H](CO/C=C\CCCCCCCCCCCCCC)COP(=O)([O-])OCC[N+](C)(C)C [PC P- 16:0@_16:1] (ion (formula + adduct): [C40H78NO7P+H] 1+) |

| Compound | TIMS collisional cross section (sample type: HeLa) [Å²] | TIMS collisional cross section (sample type: Liver) [Å²] | TIMS collisional cross section (sample type: plasma) [Å²] |
| --- | --- | --- | --- |
| CCCCC/C=C\C/C=C\C/C=C\C/C=C\CCCC(=O)O[C@H](COC(=O)CCCCCCCCCCCCCCCCC)COP(=O)([O-])OCC[N+](C)(C)C [PC 18:0@_20:4] (ion (formula + adduct): [C46H84NO8P+H] 1+) | – | – | 296 |
